In patent publication US8575391B2, “5-substituted-2-phenylamino benzamides as MEK inhibitors” (priority 2004, dated 2013):
In brackets after ≈: the same amount, converted by molar mass.

Tests used:
[1] = system: Human colon cancer cell line HT-29; assay: cells; conditions: HT-29, 96 h, read-out: Growth inhibitory activity against cancer cells HT29 IC50
Method: (§1) The growth inhibitory activities against cancer cells were measured using Cell Counting Kit-8 (Dojindo Laboratories).

[2] = system: human non-small cell lung carcinoma cell line QG56; assay: cells; conditions: QG-56, 96 h, read-out: Growth inhibitory activity against cancer cells QG56 IC50
Method: as §1

[3] = physchem; type: physicochemical; conditions: aqueous buffer, thermodynamic from solid; 50 mM phosphate buffer (pH 6.5), room temperature (20° C.); read-out: Water solubility
[4] = in vitro; type: in vitro ADME; conditions: liver microsomes; mouse liver microsome 1 mg protein/mL, 2 mM NADPH, pH 7.4, 37° C.; read-out: Stability against mouse liver microsome T1/2

## C#Cc1ccc(Nc2c(C(=O)NOCCO)cc(CN3OCCCC3=O)c(F)c2F)c(F)c1 [Compound G-4, 2-(4-Ethynyl-2-fluoro-phenylamino)-3,4-difluoro-N-(2-hydroxy-ethoxy)-5-(3-oxo-[1,2]oxadinan-2-ylmethyl)-benzamide]
[1]
  IC50: 5.7 nM
[2]
  IC50: 21 nM
[3]
  solubility at 2 h: 344 µM (≈ 159 µg/mL)
[4]
  half-life: > 6 h
